Measurements: patent publication US20250236607A1, “CYCLIN-DEPENDENT KINASE 9 (CDK9) DEGRADERS AND METHODS OF USING THEREOF” (OHIO STATE INNOVATION FOUNDATION, priority 2022, published 2025)
pIC50: −log10 of the molar value. In brackets after ≈: the same amount, converted by molar mass. Where two headings read alike, the source gives them in different places.

Experiments:
[1] = test system: MOLM13 cells; experiment: Cytotoxicity against MOLM13 cells; assay type: cell-based; settings: MOLM13 cells, read-out: IC50
Description: (§1) Through amide coupling using I-ethyl-3-carbodiimide hydrochloride (EDC.HCl), the alkynyl derivatives of 4.16, 4.29 and 4.30 were synthesized. Using these VIP152-derivatives, degraders 4.31, 4.33 and 4.34 were synthesized using click chemistry. Degrader 4.32 was also synthesized using amide coupling conditions with (1-[Bis([…])methylene]-1H-1,2,3-triazolo[4,5-b]pyridinium 3-oxide hexafluorophosphate (HATU) and the carboxylic acid 4.28. Scheme 7 illustrates the synthesis of this initial series. The series was evaluated for cytotoxicity against MOLM13 cells (IC50) and for their CDK9 degradation potency (DC50). The results are provided in Table 3.

[2] = target: T1, CDK9 (Homo sapiens, UniProt P50750+Q96SW2); experiment: CDK9 degradation potency (DC50) of VIP152-based degraders; assay type: cell-based; settings: VIP152-based series
T1 construct: endogenous in cells
Description: as §1

[3] = Chromatographic log D determination (log k′80); assay type: physicochemical; settings: chromatographic log D, PLRP-S column, pH 7.72
Description: Chromatographic Log D Determination. Test samples were prepared from 10 mM stock solutions in DMSO, to make 122 μM solutions in acetonitrile. Retention times were determined on a Shimadzu High Performance Liquid Chromatography (HPLC) system with Agilent PLRP-S column, 100 Å, 5 um particle size, 50×4.6 mm (part no.: PL1512-1500) with 1 mL/min flow rate. A 65 mM aqueous solution of ammonium acetate was prepared in water and diluted with acetonitrile to give 0.1% ammonium acetate 20:80 acetonitrile solution with pH 7.72. Eluents were detected with UV spectrophotometry at 337 nm. As a standard set, the retention times of β-estradiol, nifedipine, quinoline, phenol and 2-nitrophenol were determined (log k′80) and the dead time was extrapolated based on the reported log k′80 values originally reported by Caron et. al (log k′80*). The average value of the dead time for the standard set was 0.3001 minutes. Therefore, for consistency, 0.3 minutes was used as the dead time for all test samples. Experiments were performed in triplicate with a maximum percent standard deviation of 6.85%.

[4] = Kinetic solubility assay; settings: kinetic solubility, PBS pH 7.4; for solubility at 1.5 h: phosphate buffered saline, pH 7.4, aqueous buffer, kinetic from dmso stock, Solubility (μM)
Description: Kinetic Solubility Assay. Kinetic solubility (KS) was measured according to Millipore protocol PC2445 EN00. Test compounds were weighed and diluted with DMSO to 10 mM. From the stock solutions as well as blank (100% DMSO) was taken 17.5 μL and diluted to 500 μM with 332.5 μL of 100 mM phosphate Buffered Saline (PPBS) at pH 7.4 in a 96-well quartz plate. From the 500 μM solutions was taken 150 μL and dispensed into a 96-well Millipore filter plate (Product number: MSSLBPC10). In the quartz plate, serial dilutions were performed down to 0.5 μM using the 100 mM PBS solution, leaving 100 μL of each test sample at 11 different concentrations, representing standards. These steps were performed in triplicate, at minimum, for each test compound. Both plates were shaken on an orbital shaker at 150 rpm for 1.5 hours. The contents of the filter plate were filtered and 100 μL of the filtrate from each well was dispensed into the quartz plate containing standards. The quartz plate was then analyzed using a UV plate reader where absorbance was measured at the relevant wavelength for each compound. After blank subtraction, for each test sample, solubility was determined based on the optical density of filtered samples and the equations derived from the corresponding linear standard curve.

[5] = Homo sapiens, MOLM-13, cytotoxicity

T1 sequence (P50750 whole entry): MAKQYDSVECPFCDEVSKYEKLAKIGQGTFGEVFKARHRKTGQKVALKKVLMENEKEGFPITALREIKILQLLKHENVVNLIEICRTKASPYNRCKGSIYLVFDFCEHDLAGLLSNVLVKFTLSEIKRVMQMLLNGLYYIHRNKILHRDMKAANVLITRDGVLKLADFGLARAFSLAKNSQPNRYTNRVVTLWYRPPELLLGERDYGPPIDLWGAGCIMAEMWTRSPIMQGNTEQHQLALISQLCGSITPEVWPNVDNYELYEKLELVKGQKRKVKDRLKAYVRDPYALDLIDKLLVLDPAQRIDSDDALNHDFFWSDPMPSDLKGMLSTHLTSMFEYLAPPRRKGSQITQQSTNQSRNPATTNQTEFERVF
T1 sequence (O60563 whole entry partner): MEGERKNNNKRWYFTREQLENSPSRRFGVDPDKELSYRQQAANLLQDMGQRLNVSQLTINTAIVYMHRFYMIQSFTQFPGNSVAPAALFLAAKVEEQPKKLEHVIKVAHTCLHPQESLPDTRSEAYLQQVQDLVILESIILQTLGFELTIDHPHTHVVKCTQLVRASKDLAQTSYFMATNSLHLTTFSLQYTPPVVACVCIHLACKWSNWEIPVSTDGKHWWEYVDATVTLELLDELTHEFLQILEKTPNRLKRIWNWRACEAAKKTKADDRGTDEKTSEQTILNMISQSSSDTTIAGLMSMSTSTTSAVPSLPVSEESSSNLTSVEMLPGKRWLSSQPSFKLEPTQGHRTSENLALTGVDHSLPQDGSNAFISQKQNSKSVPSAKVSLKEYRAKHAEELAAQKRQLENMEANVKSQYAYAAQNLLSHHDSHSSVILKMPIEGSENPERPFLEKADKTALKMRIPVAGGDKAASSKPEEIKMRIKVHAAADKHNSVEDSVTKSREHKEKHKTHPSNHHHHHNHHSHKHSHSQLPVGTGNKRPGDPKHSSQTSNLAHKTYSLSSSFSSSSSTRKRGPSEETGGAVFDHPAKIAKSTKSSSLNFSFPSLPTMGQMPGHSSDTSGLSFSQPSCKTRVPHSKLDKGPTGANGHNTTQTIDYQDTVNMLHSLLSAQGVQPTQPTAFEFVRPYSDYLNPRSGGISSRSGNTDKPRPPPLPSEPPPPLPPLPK
T1 sequence (Q96SW2 whole entry): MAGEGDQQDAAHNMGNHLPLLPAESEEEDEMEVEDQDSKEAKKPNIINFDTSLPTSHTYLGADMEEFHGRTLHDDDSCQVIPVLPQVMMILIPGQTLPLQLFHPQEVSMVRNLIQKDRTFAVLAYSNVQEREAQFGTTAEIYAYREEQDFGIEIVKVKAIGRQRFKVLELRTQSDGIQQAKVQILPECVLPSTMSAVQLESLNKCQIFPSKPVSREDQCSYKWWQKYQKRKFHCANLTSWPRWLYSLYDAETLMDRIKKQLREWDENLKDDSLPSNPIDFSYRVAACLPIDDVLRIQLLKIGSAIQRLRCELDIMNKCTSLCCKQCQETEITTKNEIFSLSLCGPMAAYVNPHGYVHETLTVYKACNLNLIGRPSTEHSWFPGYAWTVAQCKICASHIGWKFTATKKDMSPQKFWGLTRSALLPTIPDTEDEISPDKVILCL
T1 sequence (Q16531 whole entry partner): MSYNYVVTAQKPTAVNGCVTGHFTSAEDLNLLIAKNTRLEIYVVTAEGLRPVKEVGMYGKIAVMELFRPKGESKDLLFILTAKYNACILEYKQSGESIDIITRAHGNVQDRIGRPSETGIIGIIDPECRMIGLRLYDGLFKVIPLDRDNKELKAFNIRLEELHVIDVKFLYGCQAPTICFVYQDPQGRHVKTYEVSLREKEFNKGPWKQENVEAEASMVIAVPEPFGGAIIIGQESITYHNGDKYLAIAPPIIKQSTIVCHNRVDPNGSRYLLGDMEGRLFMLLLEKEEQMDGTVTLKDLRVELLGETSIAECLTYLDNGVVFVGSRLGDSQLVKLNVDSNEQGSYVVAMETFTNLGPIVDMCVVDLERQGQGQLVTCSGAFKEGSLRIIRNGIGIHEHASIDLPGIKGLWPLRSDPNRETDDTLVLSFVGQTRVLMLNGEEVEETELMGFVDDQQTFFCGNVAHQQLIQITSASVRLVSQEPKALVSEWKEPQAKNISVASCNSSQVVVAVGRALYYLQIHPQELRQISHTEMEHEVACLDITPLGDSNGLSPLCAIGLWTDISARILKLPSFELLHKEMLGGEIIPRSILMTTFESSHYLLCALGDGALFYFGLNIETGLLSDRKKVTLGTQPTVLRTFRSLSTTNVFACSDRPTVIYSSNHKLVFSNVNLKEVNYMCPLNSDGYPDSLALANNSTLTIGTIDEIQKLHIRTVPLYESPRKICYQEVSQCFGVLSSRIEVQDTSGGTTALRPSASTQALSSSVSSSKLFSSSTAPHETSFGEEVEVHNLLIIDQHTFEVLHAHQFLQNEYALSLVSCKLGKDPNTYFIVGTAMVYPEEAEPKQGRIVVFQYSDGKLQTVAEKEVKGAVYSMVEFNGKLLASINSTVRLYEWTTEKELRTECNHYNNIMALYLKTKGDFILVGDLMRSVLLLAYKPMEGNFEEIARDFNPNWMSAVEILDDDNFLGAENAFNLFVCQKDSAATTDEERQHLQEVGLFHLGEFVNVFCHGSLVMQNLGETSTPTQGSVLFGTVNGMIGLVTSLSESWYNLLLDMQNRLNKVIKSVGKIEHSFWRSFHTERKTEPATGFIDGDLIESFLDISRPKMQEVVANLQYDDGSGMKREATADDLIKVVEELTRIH

Compound | pIC50 [1, 5] | DC50 [2] | logk′80 [3] | solubility at 1.5 h [4] | pIC50 ([1]; cytotoxicity) | Solubility [4]
COc1cc(F)ccc1-c1cc(Nc2cc(CS(C)(=O)=NC(=O)CN3CCN(Cc4cn(CCCOc5cccc6c5C(=O)N(C5CCC(=O)NC5=O)C6=O)nn4)CC3)ccn2)ncc1F (stereo not drawn) [Compound 4.39, 2-(4-((1-(3-((2-(2,6-dioxopiperidin-3-yl)-1,3-dioxoisoindolin-4-yl)oxy)propyl)-1H-1,2,3-triazol-4-yl)methyl)piperazin-1-yl)-N-(((2-((5-fluoro-4-(4-fluoro-2-methoxyphenyl)pyridin-2-yl)amino)pyridin-4-yl)methyl)(methyl)(oxo)-16-sulfaneylidene)acetamide] | 6.08 | 640 nM | 0.10 | 26.5 µM (≈ 24.5 µg/mL) | – | –
COc1cc(F)ccc1-c1cc(Nc2cc(CS(C)(=O)=NC(=O)CN3CCN(Cc4cn(CC(=O)N5CCN(CC#Cc6cccc7c6C(=O)N(C6CCC(=O)NC6=O)C7=O)CC5)nn4)CC3)ccn2)ncc1F (stereo not drawn) [Compound 4.51, 2-(4-((1-(2-(4-(3-(2-(2,6-dioxopiperidin-3-yl)-1,3-dioxoisoindolin-4-yl)prop-2-yn-1-yl)piperazin-1-yl)-2-oxoethyl)-1H-1,2,3-triazol-4-yl)methyl)piperazin-1-yl)-N-(((2-((5-fluoro-4-(4-fluoro-2-methoxyphenyl)pyridin-2-yl)amino)pyridin-4-yl)methyl)(methyl)(oxo)-16-sulfaneylidene)acetamide] | – | 370 nM | 0.09 | – | 5.81 | 14.8 µM (≈ 15.3 µg/mL)
COc1cc(F)ccc1-c1cc(Nc2cc(CS(C)(=O)=NC(=O)CN3CCC(c4cn(C5CN(C(=O)CNc6cccc7c6C(=O)N(C6CCC(=O)NC6=O)C7=O)C5)nn4)CC3)ccn2)ncc1F (stereo not drawn) [Compound 4.59, 2-(4-(1-(1-((2-(2,6-dioxopiperidin-3-yl)-1,3-dioxoisoindolin-4-yl)glycyl)azetidin-3-yl)-1H-1,2,3-triazol-4-yl)piperidin-1-yl)-N-(((2-((5-fluoro-4-(4-fluoro-2-methoxyphenyl)pyridin-2-yl)amino)pyridin-4-yl)methyl)(methyl)(oxo)-16-sulfaneylidene)acetamide] | – | 110 nM | 0.09 | – | 6.68 | 5.0 µM (≈ 4.83 µg/mL)
COc1cc(F)ccc1-c1cc(Nc2cc(CS(C)(=O)=NC(=O)CN3CCC(c4cn(C5CN(c6cccc7c6C(=O)N(C6CCC(=O)NC6=O)C7=O)C5)nn4)CC3)ccn2)ncc1F (stereo not drawn) [Compound 4.60, 2-(4-(1-(1-(2-(2,6-dioxopiperidin-3-yl)-1,3-dioxoisoindolin-4-yl)azetidin-3-yl)-1H-1,2,3-triazol-4-yl)piperidin-1-yl)-N-(((2-((5-fluoro-4-(4-fluoro-2-methoxyphenyl)pyridin-2-yl)amino)pyridin-4-yl)methyl)(methyl)(oxo)-16-sulfaneylidene)acetamide] | – | 1660 nM | 0.16 | – | 5.72 | 4.1 µM (≈ 3.72 µg/mL)
COc1cc(F)ccc1-c1cc(Nc2cc(CS(C)(=O)=NC(=O)C3CCCN(Cc4cn(CC(=O)N5CCN(CC#Cc6cccc7c6C(=O)N(C6CCC(=O)NC6=O)C7=O)CC5)nn4)C3)ccn2)ncc1F (stereo not drawn) [Compound 4.64, 1-((1-(2-(4-(3-(2-(2,6-dioxopiperidin-3-yl)-1,3-dioxoisoindolin-4-yl)prop-2-yl-1-yl)piperazin-1-yl)-2-oxoethyl)-1H-1,2,3-triazol-4-yl)methyl)-N-(((2-((5-fluoro-4-(4-fluoro-2-methoxyphenyl)pyridin-2-yl)amino)pyridin-4-yl)methyl)(methyl)(oxo)-16-sulfaneylidene)piperidine-3-carboxamide] | – | 780 nM | 0.14 | – | 6.07 | 33.0 µM (≈ 33.6 µg/mL)
COc1cc(F)ccc1-c1cc(Nc2cc(CS(C)(=O)=NC(=O)C3CCCN(Cc4cn(CC(=O)N5CCN(CCCc6cccc7c6C(=O)N(C6CCC(=O)NC6=O)C7=O)CC5)nn4)C3)ccn2)ncc1F (stereo not drawn) [Compound 4.73, 1-({1-[2-(4-{3-[2-(2,6-dioxopiperidin-3-yl)-1,3-dioxo-2,3-dihydro-1H-isoindol-4-yl]propyl}piperazin-1-yl)-2-oxoethyl]-1H-1,2,3-triazol-4-yl}methyl)-N-{[1 (2-{[5-fluoro-4-(4-fluoro-2-methoxyphenyl)pyridin-2-yl]amino}pyridin-4-yl)methyl](methyl)oxo-λ^6-sulfanylidene}piperidine-3-carboxamide] | 6.15 | 2630 nM | 0.13 | 3.5 µM (≈ 3.57 µg/mL) | – | –
COc1cc(F)ccc1-c1cc(Nc2cc(CS(C)(=O)=NC(=O)C3CCCN(Cc4cn(CC(=O)N5CCC(C#Cc6cccc7c6C(=O)N(C6CCC(=O)NC6=O)C7=O)CC5)nn4)C3)ccn2)ncc1F (stereo not drawn) [Compound 4.75, 1-({1-[2-(4-{2-[2-(2,6-dioxopiperidin-3-yl)-1,3-dioxo-2,3-dihydro-1H-isoindol-4-yl]ethynyl}piperidin-1-yl)-2-oxoethyl]-1H-1,2,3-triazol-4-yl}methyl)-N-{[1 (2-{[5-fluoro-4-(4-fluoro-2-methoxyphenyl)pyridin-2-yl]amino}pyridin-4-yl)methyl](methyl)oxo-λ^6-sulfanylidene}piperidine-3-carboxamide] | 5.83 | 1620 nM | 0.18 | 4.8 µM (≈ 4.81 µg/mL) | – | –
COc1cc(F)ccc1-c1cc(Nc2cc(CS(C)(=O)=NC(=O)CN3CCC(c4cn(CC5CCN(c6cccc7c6C(=O)N(C6CCC(=O)NC6=O)C7=O)CC5)nn4)CC3)ccn2)ncc1F (stereo not drawn) [Compound 4.76, 2-{[4-[1-({1-[2-(2,6-dioxopiperidin-3-yl)-1,3-dioxo-2,3-dihydro-1H-isoindol-4-yl]piperidin-4-yl}methyl)-1H-1,2,3-triazol-4-yl]piperidin-1-yl}-N-{[2-{[5-fluoro-4-(4-fluoro-2-methoxyphenyl)pyridin-2-yl]amino}pyridin-4-yl)methyl](methyl)oxoλ^6-sulfanylidene}acetamide] | – | 240 nM | 0.19 | – | 6.52 | 4.7 µM (≈ 4.47 µg/mL)
COc1cc(F)ccc1-c1cc(Nc2cc(CS(C)(=O)=NC(=O)CN3CCC(COc4cccc5c4C(=O)N(C4CCC(=O)NC4=O)C5=O)CC3)ccn2)ncc1F (stereo not drawn) [Compound 4.79, 2-[4-({[2-(2,6-dioxopiperidin-3-yl)-1,3-dioxo-2,3-dihydro-1H-isoindol-4-yl]oxy}methyl)piperidin-1-yl]-N-{[(2-{[5˜fluoro-4-(4-fluoro-2-methoxyphenyl)pyridin-2-yl]amino}pyridin-4-yl)methyl](methyl)oxo-26-sulfanylidene}acetamide] | 6.72 | 360 nM | 0.20 | 3.1 µM (≈ 2.53 µg/mL) | – | –
COc1cc(F)ccc1-c1cc(Nc2cc(CS(C)(=O)=NC(=O)CCc3cn(CC4CCN(C5CN(C(=O)CNc6cccc7c6C(=O)N(C6CCC(=O)NC6=O)C7=O)C5)CC4)nn3)ccn2)ncc1F (stereo not drawn) [Compound 4.89, 3-(1-((1-(1-((2-(2,6-dioxopiperidin-3-yl)-1,3-dioxoisoindolin-4-yl)glycyl)azetidin-3-yl)piperidin-4-yl)methyl)-1H-1,2,3-triazol-4-yl)-N-(((2-((5-fluoro-4-(4-fluoro-2-methoxyphenyl)pyridin-2-yl)amino)pyridin-4-yl)methyl)(methyl) (oxo)-26-sulfaneylidene) propanamide] | 6.77 | 80 nM | 0.09 | 1.8 µM (≈ 1.79 µg/mL) | – | –
COc1cc(F)ccc1-c1cc(Nc2cc(CS(C)(=O)=NC(=O)CCC(=O)N3CC(N4CCC(Cn5cc(CNC(=O)CNc6cccc7c6C(=O)N(C6CCC(=O)NC6=O)C7=O)nn5)CC4)C3)ccn2)ncc1F (stereo not drawn) [Compound 4.90, 4-{3-[4-({4-[(2˜ {[2˜ (2,6-dioxopiperidin-3-yl)-1,3-dioxo-2,3-dihydro-1H-isoindol-4-yl]amino}acetamido)methyl]-1H-1,2,3-triazol-1-yl}methyl)piperidin-1-yl]azetidin-1-yl}-N-{[(2-{[5-fluoro-4-(4-fluoro-2-methoxyphenyl)pyridin-2-yl]amino}pyridin-4-yl)methyl](methyl)oxo-λ^6-sulfanylidene}-4-oxobutanamide] | 5.86 | 900 nM | 0.07 | 8.3 µM (≈ 8.72 µg/mL) | – | –
COc1cc(F)ccc1-c1cc(Nc2cc(CS(C)(=O)=NC(=O)CCC(=O)N3CC(N4CCC(Cn5cc(COc6cccc7c6C(=O)N(C6CCC(=O)NC6=O)C7=O)nn5)CC4)C3)ccn2)ncc1F (stereo not drawn) [Compound 4.91] | 6.23 | 260 nM | 0.09 | 3.8 µM (≈ 3.78 µg/mL) | – | –
